In publication PMC3977580 (Biochemistry, 2014):

Molecular target: T1, SaMTAN (5′-methylthioadenosine/S-adenosylhomocysteine nucleosidase) (Staphylococcus aureus, UniProt Q99TQ0)
T1 sequence (Q99TQ0 1-228): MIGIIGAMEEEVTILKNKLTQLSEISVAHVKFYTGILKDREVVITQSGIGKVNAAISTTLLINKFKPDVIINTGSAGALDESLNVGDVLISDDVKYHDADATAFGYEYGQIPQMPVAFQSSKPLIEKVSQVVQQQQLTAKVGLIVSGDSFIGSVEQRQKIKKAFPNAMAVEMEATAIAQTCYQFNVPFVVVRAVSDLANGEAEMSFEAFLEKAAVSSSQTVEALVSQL
Assay: ITC
Type: binding

Kd: 9 nM
SMILES: CSC[C@H]1CN(Cc2c[nH]c3c(N)ncnc23)C[C@@H]1O [MT-DADMe-ImmA]
